Measured values from PubChem BioAssay (NCI).
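How tested: cells in 96-well plates exposed to compound for 48 hours at five concentrations. GI50: concentration for 50% inhibition of growth. TGI: concentration producing complete growth inhibition.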

Assays:
Assay in all cases: growth of human tumour cells (NCI), 48 h
UO-31 renal = tested on: UO-31 renal
RXF 393 renal = tested on: RXF 393 renal
CAKI-1 renal = tested on: CAKI-1 renal
LOX IMVI melanoma = tested on: LOX IMVI melanoma
HOP-92 NSCLC = tested on: HOP-92 NSCLC
EKVX NSCLC = tested on: EKVX NSCLC
MDA-MB-435 = tested on: MDA-MB-435
M14 melanoma = tested on: M14 melanoma
SF-295 CNS = tested on: SF-295 CNS
PC-3 prostate = tested on: PC-3 prostate
CCRF-CEM leukemia = tested on: CCRF-CEM leukemia
OVCAR-3 ovarian = tested on: OVCAR-3 ovarian
K-562 leukemia = tested on: K-562 leukemia
NCI-H226 lung = tested on: NCI-H226 lung
NCI-H460 lung = tested on: NCI-H460 lung
HOP-62 NSCLC = tested on: HOP-62 NSCLC
SNB-19 CNS = tested on: SNB-19 CNS
T-47D breast = tested on: T-47D breast
HCT-15 colon = tested on: HCT-15 colon
UACC-62 melanoma = tested on: UACC-62 melanoma
SK-MEL-2 melanoma = tested on: SK-MEL-2 melanoma
SK-MEL-28 melanoma = tested on: SK-MEL-28 melanoma
HCC-2998 colon = tested on: HCC-2998 colon
SK-MEL-5 melanoma = tested on: SK-MEL-5 melanoma
SNB-75 CNS = tested on: SNB-75 CNS
HT29 colon = tested on: HT29 colon
OVCAR-4 ovarian = tested on: OVCAR-4 ovarian
SF-539 CNS = tested on: SF-539 CNS
A498 renal = tested on: A498 renal
RPMI-8226 leukemia = tested on: RPMI-8226 leukemia
NCI-H522 lung = tested on: NCI-H522 lung
UACC-257 melanoma = tested on: UACC-257 melanoma
HCT-116 colon = tested on: HCT-116 colon
NCI-H23 lung = tested on: NCI-H23 lung
OVCAR-5 ovarian = tested on: OVCAR-5 ovarian
SF-268 CNS = tested on: SF-268 CNS
MDA-MB-231 breast = tested on: MDA-MB-231 breast
COLO 205 colon = tested on: COLO 205 colon
HS 578T breast = tested on: HS 578T breast
BT-549 breast = tested on: BT-549 breast
HL-60(TB) leukemia = tested on: HL-60(TB) leukemia
NCI/ADR-RES ovarian = tested on: NCI/ADR-RES ovarian
U251 CNS = tested on: U251 CNS
ACHN renal = tested on: ACHN renal
A549 NSCLC = tested on: A549 NSCLC
IGROV1 ovarian = tested on: IGROV1 ovarian
SW-620 colon = tested on: SW-620 colon
SK-OV-3 ovarian = tested on: SK-OV-3 ovarian
OVCAR-8 ovarian = tested on: OVCAR-8 ovarian
KM12 colon = tested on: KM12 colon
MCF7 breast = tested on: MCF7 breast
TK-10 renal = tested on: TK-10 renal
786-0 renal = tested on: 786-0 renal
SR leukemia = tested on: SR leukemia
MALME-3M melanoma = tested on: MALME-3M melanoma
MOLT-4 leukemia = tested on: MOLT-4 leukemia
DU-145 prostate = tested on: DU-145 prostate
SN12C renal = tested on: SN12C renal

`COc1cc(/C=C/C(=O)c2cccc(-n3cc(-c4ccc(Cl)cc4)[nH]c3=O)c2)ccc1O` was tested, and the GI50 (UO-31 renal) was 1260 nM, the TGI (UO-31 renal) was over 37 µM and the GI50 (RXF 393 renal) was 2990 nM. For the same molecule, the TGI (RXF 393 renal) was 9.13 µM, the GI50 (CAKI-1 renal) was 5.02 µM and the TGI (CAKI-1 renal) was 44.9 µM. For the same molecule, the GI50 (LOX IMVI melanoma) was 1640 nM, the TGI (LOX IMVI melanoma) was 4.03 µM and the GI50 (HOP-92 NSCLC) was 1520 nM. The TGI (HOP-92 NSCLC) was 7.05 µM, the GI50 (EKVX NSCLC) was 6.6 µM and the TGI (EKVX NSCLC) was over 95.2 µM. For the same molecule, the GI50 (MDA-MB-435) was 2750 nM, the TGI (MDA-MB-435) was over 47.5 µM and the GI50 (M14 melanoma) was 3.51 µM. For the same molecule, the TGI (M14 melanoma) was 15.2 µM, the GI50 (SF-295 CNS) was 8.08 µM and the TGI (SF-295 CNS) was 31.8 µM. For the same molecule, the GI50 (PC-3 prostate) was 1950 nM, the TGI (PC-3 prostate) was 6.97 µM and the GI50 (CCRF-CEM leukemia) was 706 nM. The TGI (CCRF-CEM leukemia) was 4.42 µM, the GI50 (OVCAR-3 ovarian) was 1560 nM and the TGI (OVCAR-3 ovarian) was 3.57 µM. For the same molecule, the GI50 (K-562 leukemia) was 2360 nM, the TGI (K-562 leukemia) was over 26.4 µM and the GI50 (NCI-H226 lung) was 6.38 µM. For the same molecule, the TGI (NCI-H226 lung) was 19.5 µM, the GI50 (NCI-H460 lung) was 6.43 µM and the TGI (NCI-H460 lung) was 21.7 µM. For the same molecule, the GI50 (HOP-62 NSCLC) was 3.87 µM, the TGI (HOP-62 NSCLC) was 15 µM and the GI50 (SNB-19 CNS) was 3.52 µM. The TGI (SNB-19 CNS) was 15.6 µM, the GI50 (T-47D breast) was 3.39 µM and the TGI (T-47D breast) was 17.8 µM. The GI50 (HCT-15 colon) was 1800 nM, the TGI (HCT-15 colon) was 7.07 µM and the GI50 (UACC-62 melanoma) was 2500 nM. The TGI (UACC-62 melanoma) was 9.59 µM, the GI50 (SK-MEL-2 melanoma) was 3.61 µM and the TGI (SK-MEL-2 melanoma) was 14.4 µM. It also gave a GI50 (SK-MEL-28 melanoma) of 2070 nM, a TGI (SK-MEL-28 melanoma) of 4.18 µM and a GI50 (HCC-2998 colon) of 2350 nM. The TGI (HCC-2998 colon) was 5.5 µM, the GI50 (SK-MEL-5 melanoma) was 1880 nM and the TGI (SK-MEL-5 melanoma) was 5.22 µM. It also gave a GI50 (SNB-75 CNS) of 2360 nM, a TGI (SNB-75 CNS) of 10.2 µM and a GI50 (HT29 colon) of 2970 nM. It also gave a TGI (HT29 colon) of over 100 µM, a GI50 (OVCAR-4 ovarian) of 3.11 µM and a TGI (OVCAR-4 ovarian) of over 23.7 µM. The GI50 (SF-539 CNS) was 1860 nM, the TGI (SF-539 CNS) was 4.05 µM and the GI50 (A498 renal) was 5.78 µM. For the same molecule, the TGI (A498 renal) was 16.7 µM, the GI50 (RPMI-8226 leukemia) was 1330 nM and the TGI (RPMI-8226 leukemia) was 3.76 µM. The GI50 (NCI-H522 lung) was 1810 nM, the TGI (NCI-H522 lung) was 11 µM and the GI50 (UACC-257 melanoma) was 5.53 µM. For the same molecule, the TGI (UACC-257 melanoma) was 18.6 µM, the GI50 (HCT-116 colon) was 1570 nM and the TGI (HCT-116 colon) was 3.82 µM. For the same molecule, the GI50 (NCI-H23 lung) was 4.43 µM, the TGI (NCI-H23 lung) was 24.4 µM and the GI50 (OVCAR-5 ovarian) was 6.45 µM. For the same molecule, the TGI (OVCAR-5 ovarian) was 15.1 µM, the GI50 (SF-268 CNS) was 2930 nM and the TGI (SF-268 CNS) was 12.6 µM. The GI50 (MDA-MB-231 breast) was 3.46 µM, the TGI (MDA-MB-231 breast) was over 39.1 µM and the GI50 (COLO 205 colon) was 4.88 µM. The TGI (COLO 205 colon) was 16 µM, the GI50 (HS 578T breast) was 3.78 µM and the TGI (HS 578T breast) was 26.9 µM. The GI50 (BT-549 breast) was 2890 nM, the TGI (BT-549 breast) was 10.9 µM and the GI50 (HL-60(TB) leukemia) was 4.56 µM. For the same molecule, the TGI (HL-60(TB) leukemia) was over 24.3 µM, the GI50 (NCI/ADR-RES ovarian) was 2780 nM and the TGI (NCI/ADR-RES ovarian) was over 30.5 µM. For the same molecule, the GI50 (U251 CNS) was 2190 nM, the TGI (U251 CNS) was 6.01 µM and the GI50 (ACHN renal) was 2190 nM. For the same molecule, the TGI (ACHN renal) was 4.95 µM, the GI50 (A549 NSCLC) was 4.67 µM and the TGI (A549 NSCLC) was over 37.7 µM. The GI50 (IGROV1 ovarian) was 2000 nM, the TGI (IGROV1 ovarian) was 5.61 µM and the GI50 (SW-620 colon) was 2300 nM. The TGI (SW-620 colon) was 7.71 µM, the GI50 (SK-OV-3 ovarian) was 4.78 µM and the TGI (SK-OV-3 ovarian) was over 30.2 µM. The GI50 (OVCAR-8 ovarian) was 2390 nM, the TGI (OVCAR-8 ovarian) was over 27.3 µM and the GI50 (KM12 colon) was 1600 nM. For the same molecule, the TGI (KM12 colon) was 3.42 µM, the GI50 (MCF7 breast) was 1440 nM and the TGI (MCF7 breast) was 7.98 µM. For the same molecule, the GI50 (TK-10 renal) was 6.6 µM, the TGI (TK-10 renal) was over 65.5 µM and the GI50 (786-0 renal) was 2540 nM. It also gave a TGI (786-0 renal) of 6.69 µM, a GI50 (SR leukemia) of 11.8 µM and a TGI (SR leukemia) of over 100 µM. For the same molecule, the GI50 (MALME-3M melanoma) was 5.99 µM, the TGI (MALME-3M melanoma) was 22.2 µM and the GI50 (MOLT-4 leukemia) was 1620 nM. For the same molecule, the TGI (MOLT-4 leukemia) was over 25.1 µM, the GI50 (DU-145 prostate) was 2600 nM and the TGI (DU-145 prostate) was 7.55 µM. The GI50 (SN12C renal) was 2810 nM and the TGI (SN12C renal) was over 60.9 µM.
